# Measurements taken from article PMC8683641 (Journal of medicinal chemistry, 2021).
# Assays:
# [1] = molecular target: hCB2 Cannabinoid Receptors (Homo sapiens, UniProt P34972); experiment: [35S]GTPγS binding assay for efficacy, CHO-hCB2 membranes; type: biochemical; details: from [35S]GTPγS binding
# [2] = molecular target: hCB1 (Homo sapiens, UniProt P21554); type: binding; details: propyl tail versus pentyl
# [3] = tested on: hCB2; details: literature values; cited from earlier work
# [4] = tested on: hCB2; type: binding, human; details: Ki hCB1 / Ki hCB2
# Chain of hCB2 Cannabinoid Receptors (P34972 whole entry): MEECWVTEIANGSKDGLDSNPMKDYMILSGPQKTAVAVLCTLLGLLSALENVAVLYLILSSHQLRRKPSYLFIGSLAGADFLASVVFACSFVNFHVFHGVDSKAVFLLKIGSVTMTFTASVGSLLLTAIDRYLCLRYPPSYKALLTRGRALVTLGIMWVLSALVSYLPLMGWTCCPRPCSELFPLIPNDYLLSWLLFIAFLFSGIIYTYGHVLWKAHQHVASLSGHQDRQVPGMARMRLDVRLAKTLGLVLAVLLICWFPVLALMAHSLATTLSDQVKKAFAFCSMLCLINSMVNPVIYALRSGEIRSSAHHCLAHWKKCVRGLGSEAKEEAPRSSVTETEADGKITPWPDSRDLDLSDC
# Chain of hCB1 (P21554 whole entry): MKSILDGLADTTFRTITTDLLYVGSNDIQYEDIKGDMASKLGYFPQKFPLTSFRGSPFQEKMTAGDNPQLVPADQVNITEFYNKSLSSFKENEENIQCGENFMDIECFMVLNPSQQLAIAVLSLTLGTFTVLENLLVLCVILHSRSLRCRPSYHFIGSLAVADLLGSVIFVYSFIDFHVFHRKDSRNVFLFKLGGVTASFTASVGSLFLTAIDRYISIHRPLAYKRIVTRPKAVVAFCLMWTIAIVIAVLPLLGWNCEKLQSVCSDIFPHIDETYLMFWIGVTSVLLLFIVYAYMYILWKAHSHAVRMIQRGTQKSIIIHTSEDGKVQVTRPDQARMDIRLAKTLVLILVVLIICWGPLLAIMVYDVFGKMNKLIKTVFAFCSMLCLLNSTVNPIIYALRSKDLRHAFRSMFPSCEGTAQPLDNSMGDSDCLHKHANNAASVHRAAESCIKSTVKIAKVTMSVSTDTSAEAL
smiles,measurement,setting,value
"CCCn1cc(C(=O)c2ccc3c(c2)CC(C)(C)C3)c2ccccc21 [GBD-005, (2,2-dimethyl-2,3-dihydro-1H-inden-5-yl) (1-propyl-1H-indol-3-yl)methanone]",functional characterization at hCB2,[1],neutral antagonists
same,reduction in CB1R affinity,[2],> 60 fold
"CCCCCn1cc(C(=O)c2cccc3c2CC(C)(C)C3)c2ccccc21 [GBD-002, (2,2-dimethyl-2,3-dihydro-1H-inden-4-yl) (1-pentyl-1H-indol-3-yl)methanone]",functional characterization at hCB2,[1],full agonist
"C#CCCCn1c(C)c(C(=O)c2ccc3c(c2)CC(C)(C)C3)c2ccccc21 [GBD-029, (2,2-Dimethyl-2,3-dihydro-1H-inden-5-yl) (2-methyl-1-(pent-4-yn-1-yl)-1H-indol-3-yl)methanone]",functional characterization at hCB2,[1]; listed as 49,agonist
CCCn1cc(C(=O)c2cccc3ccccc23)c2ccccc21 [JWH-072],SI (CB2 selectivity),[3],6
"CCCCCn1cc(C(=O)c2ccc3c(c2)CC(C)(C)C3)c2ccccc21 [GBD-003, (2,2-Dimethyl-2,3-dihydro-1H-inden-5-yl) (1-pentyl-1H-indol-3-yl)methanone]",functional characterization at hCB2,[1],CB2R antagonist
"C#CCCCn1cc(C(=O)c2ccc3c(c2)CC(C)(C)C3)c2ccccc21 [GBD-014, (2,2-Dimethyl-2,3-dihydro-1H-inden-5-yl) (1-(pent-4-yn-1-yl)-1H-indol-3-yl)methanone]",functional characterization at hCB2,[1]; listed as 35,neutral antagonists
"C=CCCCn1cc(C(=O)c2ccc3c(c2)CC(C)(C)C3)c2ccccc21 [GBD-013, (2,2-Dimethyl-2,3-dihydro-1H-inden-5-yl) (1-(pent-4-en-1-yl)-1H-indol-3-yl)methanone]",selectivity index (SI) for CB2,[4],10
CCCn1c(C)c(C(=O)c2cccc3ccccc23)c2ccccc21 [JWH-015],SI (CB2 selectivity),[3],24
